Reference: ChEMBL document CHEMBL3822376, “Potent anticholinesterasic and neuroprotective pyranotacrines as inhibitors of beta-amyloid aggregation, oxidative stress and tau-phosphorylation for Alzheimer's disease” (Eur J Med Chem, 2016)
The source made the active and inactive calls. The rule behind the calls is not given here.

Key:
SH-SY5Y [1] = experiment: cells; conditions: Homo sapiens, 24 h
Description: Neuroprotective activity against rotenone/oligomycin-A-induced cell death in human SH-SY5Y cells assessed as increase in cell viability after 24 hrs by XTT assay

in vitro [2] = conditions: human, SH-SY5Y cells
Description: Neurotoxicity in human SH-SY5Y cells assessed as cell viability at 10 uM after 24 hrs by XTT assay relative to control

SH-SY5Y [3] = experiment: Neuroprotective activity in human SH-SY5Y cells assessed as reversal of 15 nM okadaic acid-induced cell death at 1 to 10 uM after 24 hrs by XTT assay; assay type: functional, cell-based
in vitro [4] = conditions: human, SH-SY5Y cells; remark: listed apart in the source
Description: Neurotoxicity in human SH-SY5Y cells assessed as cell viability at 5 uM after 24 hrs by XTT assay relative to control

SH-SY5Y [5] = experiment: Neuroprotective activity against amyloid beta (1 to 40)-induced cell death in human SH-SY5Y cells assessed as increase in cell viability at 10 uM after 48 hrs by XTT assay; assay type: functional, cell-based
[6] = target: Cholinesterase (Equus caballus) (UniProt P81908); experiment: Inhibition of horse serum BuChE using […] as substrate at 50 uM preincubated for 15 mins followed by substrate addition by Ellman's method relative to control
in vitro [7] = conditions: human, HepG2 cells
Description: (§1) Hepatotoxicity in human HepG2 cells assessed as reduction in cell viability by MTT assay

in vitro [8] = conditions: human, SH-SY5Y cells; remark: listed apart in the source
Description: Neurotoxicity in human SH-SY5Y cells assessed as cell viability at 50 uM after 24 hrs by XTT assay relative to control

Acetylcholinesterase [9] = target: T1, Acetylcholinesterase (Electrophorus electricus, UniProt O42275)
Description: Inhibition of electric eel AChE using acetylcholine as substrate preincubated for 15 mins followed by substrate addition by Ellman's method

SH-SY5Y [10] = experiment: Neuroprotective activity in human SH-SY5Y cells assessed as reversal of 20 nM okadaic acid-induced cell death at 1 to 10 uM after 24 hrs by XTT assay; assay type: functional, cell-based
in vitro [11] = conditions: human, SH-SY5Y cells; remark: listed apart in the source
Description: Neurotoxicity in human SH-SY5Y cells assessed as cell viability at 1 uM after 24 hrs by XTT assay relative to control

in vitro [12] = conditions: human, SH-SY5Y cells; remark: listed apart in the source
Description: Neurotoxicity in human SH-SY5Y cells assessed as cell viability at 25 uM after 24 hrs by XTT assay relative to control

in vitro [13] = conditions: human, SH-SY5Y cells; remark: listed apart in the source
Description: Neurotoxicity in human SH-SY5Y cells assessed as cell viability at 0.1 uM after 24 hrs by XTT assay relative to control

[14] = target: Acetylcholinesterase (Homo sapiens) (UniProt P22303); experiment: Inhibition of AChE in human SH-SY5Y cells assessed as inhibition of amyloid beta (1 to 40) (unknown origin)-induced tau phosphorylation at Ser-396 residue at 5 to 10 uM after 48 hrs by Western blot analysis; assay type: cell-based
[15] = target: Acetylcholinesterase (Homo sapiens) (UniProt P22303); experiment: Inhibition of AChE in human SH-SY5Y cells assessed as reduction in rotenone/oligomycin-A-induced tau phosphorylation at Ser-396 residue at 10 uM after 24 hrs by Western blot analysis; assay type: cell-based
[16] = target: Acetylcholinesterase (Homo sapiens) (UniProt P22303); experiment: Inhibition of AChE in human SH-SY5Y cells assessed as inhibition of amyloid beta (1 to 40) (unknown origin)-induced amyloid beta aggregation at 5 to 10 uM measured every 24 hrs for 7 days by Thioflavin T based fluorometric assay; assay type: cell-based
SH-SY5Y [17] = experiment: Neuroprotective activity against 20 nM okadaic acid-induced cell death in human SH-SY5Y cells at 5 to 10 uM after 24 hrs by phase contrast microscopic analysis; assay type: functional, cell-based
[18] = target: Acetylcholinesterase (Homo sapiens) (UniProt P22303); experiment: Inhibition of AChE in human SH-SY5Y cells assessed as decrease in okadaic acid-induced tau oligomerization at 10 uM after 24 hrs by Western blot analysis; assay type: cell-based
in vitro [19] = conditions: human, HepG2 cells; remark: listed apart in the source
[20] = target: Acetylcholinesterase (Homo sapiens) (UniProt P22303); experiment: Inhibition of AChE in human SH-SY5Y cells assessed as decrease in okadaic acid-induced tau phosphorylation at Ser-396 residue at 10 uM after 24 hrs by Western blot analysis; assay type: cell-based
SH-SY5Y [21] = experiment: Neuroprotective activity against amyloid beta (1 to 40)-induced cell death in human SH-SY5Y cells at 10 uM after 48 hrs by phase contrast microscopic analysis; assay type: functional, cell-based
[22] = target: Acetylcholinesterase (Electrophorus electricus) (UniProt O42275); experiment: Inhibition of electric eel AChE-induced amyloid beta (1 to 40) aggregation at 25 uM measured every 24 hrs for 7 days by Thioflavin T based fluorometric assay relative to control
Acetylcholinesterase [23] = target: T1, Acetylcholinesterase; experiment: Mixed-type inhibition of electric eel AChE using acetylthiocholine as substrate preincubated for 15 mins followed by substrate addition by Dixon plot analysis
[24] = target: Acetylcholinesterase (Electrophorus electricus) (UniProt O42275); conditions: 25 uM
Description: Inhibition of electric eel AChE-induced amyloid beta (1 to 40) aggregation at 25 uM measured every 24 hrs for 7 days by Thioflavin T based fluorometric assay relative to propidium iodide

Chain of Acetylcholinesterase (Homo sapiens) (P22303 whole entry): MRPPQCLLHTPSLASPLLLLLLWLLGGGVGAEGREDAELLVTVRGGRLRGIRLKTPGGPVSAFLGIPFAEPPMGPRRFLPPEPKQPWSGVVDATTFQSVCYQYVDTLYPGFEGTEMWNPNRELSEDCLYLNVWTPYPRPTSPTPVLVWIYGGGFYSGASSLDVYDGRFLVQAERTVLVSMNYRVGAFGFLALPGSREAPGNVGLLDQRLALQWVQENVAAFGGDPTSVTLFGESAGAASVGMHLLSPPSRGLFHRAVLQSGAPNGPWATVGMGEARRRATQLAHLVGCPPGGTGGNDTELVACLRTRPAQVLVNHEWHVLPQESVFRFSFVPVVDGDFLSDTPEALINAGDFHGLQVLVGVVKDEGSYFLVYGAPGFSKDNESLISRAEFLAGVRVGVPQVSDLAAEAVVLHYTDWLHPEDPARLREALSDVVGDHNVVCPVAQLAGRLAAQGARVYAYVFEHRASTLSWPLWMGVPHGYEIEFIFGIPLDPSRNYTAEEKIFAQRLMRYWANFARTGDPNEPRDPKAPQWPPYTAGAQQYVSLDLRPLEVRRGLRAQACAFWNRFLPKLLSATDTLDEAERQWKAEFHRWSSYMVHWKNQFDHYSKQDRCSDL
T1 sequence (O42275 whole entry): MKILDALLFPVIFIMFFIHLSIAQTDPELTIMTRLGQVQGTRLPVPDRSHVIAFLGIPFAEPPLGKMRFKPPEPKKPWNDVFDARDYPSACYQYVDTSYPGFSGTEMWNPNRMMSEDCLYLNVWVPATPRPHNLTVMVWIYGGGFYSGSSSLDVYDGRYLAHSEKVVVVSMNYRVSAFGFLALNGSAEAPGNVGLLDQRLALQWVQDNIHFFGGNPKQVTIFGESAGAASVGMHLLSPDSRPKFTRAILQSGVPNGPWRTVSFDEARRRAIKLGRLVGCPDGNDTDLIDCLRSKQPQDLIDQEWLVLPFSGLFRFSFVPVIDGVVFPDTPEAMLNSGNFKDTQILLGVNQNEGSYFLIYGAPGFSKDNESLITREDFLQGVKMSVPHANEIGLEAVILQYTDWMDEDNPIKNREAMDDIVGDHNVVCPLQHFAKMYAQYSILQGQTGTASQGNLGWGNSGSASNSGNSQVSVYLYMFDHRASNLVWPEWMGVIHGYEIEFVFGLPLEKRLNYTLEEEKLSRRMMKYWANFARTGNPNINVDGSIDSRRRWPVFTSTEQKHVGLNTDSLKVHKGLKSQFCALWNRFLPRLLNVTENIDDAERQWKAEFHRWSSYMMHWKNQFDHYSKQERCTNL
Chain of Cholinesterase (Equus caballus) (P81908 whole entry): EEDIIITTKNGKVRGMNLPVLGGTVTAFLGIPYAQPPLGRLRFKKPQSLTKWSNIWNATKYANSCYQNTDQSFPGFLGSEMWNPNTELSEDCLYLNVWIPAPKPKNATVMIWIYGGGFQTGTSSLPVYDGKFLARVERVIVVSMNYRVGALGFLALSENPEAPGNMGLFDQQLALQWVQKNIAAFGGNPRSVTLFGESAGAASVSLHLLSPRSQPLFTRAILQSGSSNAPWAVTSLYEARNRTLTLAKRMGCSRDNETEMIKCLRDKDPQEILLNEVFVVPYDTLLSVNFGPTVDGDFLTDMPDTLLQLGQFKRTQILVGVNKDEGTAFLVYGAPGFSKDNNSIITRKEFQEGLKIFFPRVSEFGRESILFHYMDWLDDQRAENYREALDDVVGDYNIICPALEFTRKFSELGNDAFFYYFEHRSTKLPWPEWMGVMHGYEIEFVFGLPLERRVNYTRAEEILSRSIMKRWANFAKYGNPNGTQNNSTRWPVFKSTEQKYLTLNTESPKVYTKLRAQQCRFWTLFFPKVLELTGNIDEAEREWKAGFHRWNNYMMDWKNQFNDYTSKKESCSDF
Chain of Acetylcholinesterase (Electrophorus electricus) (O42275 24-633 limits assumed): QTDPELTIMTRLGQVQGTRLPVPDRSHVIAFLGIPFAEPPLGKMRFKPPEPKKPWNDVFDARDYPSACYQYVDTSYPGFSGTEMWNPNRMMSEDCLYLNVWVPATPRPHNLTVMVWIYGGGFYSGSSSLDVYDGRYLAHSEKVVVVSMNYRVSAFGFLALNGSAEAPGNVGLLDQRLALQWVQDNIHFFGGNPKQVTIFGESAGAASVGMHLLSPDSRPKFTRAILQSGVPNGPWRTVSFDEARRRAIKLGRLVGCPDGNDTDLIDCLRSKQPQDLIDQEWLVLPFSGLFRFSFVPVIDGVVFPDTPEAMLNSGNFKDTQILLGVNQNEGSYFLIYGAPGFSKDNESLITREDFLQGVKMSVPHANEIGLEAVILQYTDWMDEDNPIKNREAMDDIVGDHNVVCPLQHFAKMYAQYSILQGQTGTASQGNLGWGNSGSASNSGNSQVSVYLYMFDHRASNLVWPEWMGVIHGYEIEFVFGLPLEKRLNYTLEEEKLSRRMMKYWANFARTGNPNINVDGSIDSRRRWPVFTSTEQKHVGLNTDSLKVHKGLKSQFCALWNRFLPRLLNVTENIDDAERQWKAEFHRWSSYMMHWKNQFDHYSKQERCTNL
Description for HepG2: as §1

| SMILES | EC50 (SH-SY5Y [1]) [µM] | viability at 24 h, 10 µM (in vitro [2]) [%] | Activity (SH-SY5Y [3]) | viability at 24 h, 5 µM (in vitro [4]) [%] | Activity (SH-SY5Y [5]) | inhibition [6] [%] | EC50 (in vitro [7]) [µM] | viability at 24 h, 50 µM (in vitro [8]) [%] | IC50 (Acetylcholinesterase [9]) [µM] | Activity (SH-SY5Y [10]) | viability at 24 h, 1 µM (in vitro [11]) [%] | viability at 24 h, 25 µM (in vitro [12]) [%] | viability at 24 h, 0.1 µM (in vitro [13]) [%] | further results |
| --- | --- | --- | --- | --- | --- | --- | --- | --- | --- | --- | --- | --- | --- | --- |
| CCOC(=O)C1=C(C)Oc2nc3c(c(N)c2C1c1cc2cc(C)ccc2nc1Cl)CCCC3 (centres undefined) | 2.43 | 97.2 | Active | 101 | Active | 50 | 128 | 80.2 | 0.54 | Active | 82.9 | 112 | 90.1 | – |
| COC(=O)C1=C(C)Oc2nc3c(c(N)c2C1c1cc2ccc(OC)cc2nc1Cl)CCC3 (centres undefined) | 11.8 | 98 | – | 114 | Active | – | 540 | 93.2 | 1.66 | Active | 94.2 | 118 | 104 | – |
| CCOC(=O)C1=C(C)Oc2nc3c(c(N)c2C1c1cc2cc(OC)ccc2nc1Cl)CCCC3 (centres undefined) | 0.34 | 116 | – | 135 | – | – | 73 | 68.5 | 2.23 | inactive | 110 | 125 | 128 | – |
| CCOC(=O)C1=C(C)Oc2nc3c(c(N)c2C1c1cc2ccccc2nc1Cl)CCCC3 (centres undefined) | 1.54 | 96.5 | Active | 99.7 | Active | 50 | – | 93.6 | 0.48 | Active | 104 | 95.5 | 110 | EC50 (HepG2): 4820 µM; inhibition [14]: Active; inhibition [15]: Active; inhibition [16]: Active; Activity (SH-SY5Y [17]): Active; inhibition [18]: Active; selectivity ratio (in vitro [19]): 27; inhibition [20]: Active; Activity (SH-SY5Y [21]): Active |
| CCOC(=O)C1=C(C)Oc2nc3c(c(N)c2C1c1cc2ccc(OC)cc2nc1Cl)CCCCC3 (centres undefined) | 4.7 | 106 | – | 125 | Active | – | 656 | 106 | 9.8 | inactive | 99 | 109 | 84.2 | – |
| COc1ccc2cc(C3C4=C(CC(C)(C)CC4=O)Oc4nc5c(c(N)c43)CCCC5)c(Cl)nc2c1 (centres undefined) | 12.2 | 103 | – | 113 | Active | – | 922 | 90.6 | 14.8 | Active | 95.6 | 113 | 93.8 | – |
| COc1ccc2cc(C3C4=C(CC(C)(C)CC4=O)Oc4nc5c(c(N)c43)CCCCC5)c(Cl)nc2c1 (centres undefined) | 5.6 | 97.3 | – | 111 | – | – | 330 | 103 | 2.81 | Active | 97.3 | 118 | 92.2 | – |
| CCOC(=O)C1=C(C)Oc2nc3c(c(N)c2C1c1cc2cccc(OC)c2nc1Cl)CCCC3 (centres undefined) | 1.95 | 96.5 | Active | 100 | – | – | – | 99.5 | 0.61 | Active | 91.9 | 100 | 107 | EC50 (HepG2): 1080 µM |
| CCOC(=O)C1=C(C)Oc2nc3c(c(N)c2C1c1cc2ccc(OC)cc2nc1Cl)CCC3 (centres undefined) | 2.4 | 116 | – | 119 | – | – | 931 | 112 | 4.02 | Active | 135 | 106 | 115 | inhibition [22]: 28.3% |
| COC(=O)C1=C(C)Oc2nc3c(c(N)c2C1c1cc2ccc(OC)cc2nc1Cl)CCCCC3 (centres undefined) | 5.63 | 85.1 | – | 95.9 | Active | 50 | 745 | 75.1 | 1.87 | Active | 93.2 | 98.6 | 90.8 | – |
| COc1ccc2cc(C3C4=C(CC(C)(C)CC4=O)Oc4nc5c(c(N)c43)CCC5)c(Cl)nc2c1 (centres undefined) | 0.63 | 102 | – | 113 | – | – | – | 94.9 | 0.58 | inactive | 91.6 | 124 | 85 | EC50 (HepG2): 1920 µM; selectivity ratio (in vitro [19]): 11 |
| COC(=O)C1=C(C)Oc2nc3c(c(N)c2C1c1cc2ccc(OC)cc2nc1Cl)CCCC3 (centres undefined) | 0.63 | 113 | Active | 132 | Active | 50 | 622 | 82.5 | 0.47 | Active | 105 | 133 | 128 | inhibition [22]: 75%; Ki (Acetylcholinesterase [23]): 0.0142 µM; inhibition [14]: Active; inhibition [16]: Active; Activity (SH-SY5Y [17]): Active; inhibition [24]: 65%; selectivity ratio (in vitro [19]): 3.4; Activity (SH-SY5Y [21]): Active |
| CCOC(=O)C1=C(C)Oc2nc3c(c(N)c2C1c1cc2ccc(OC)cc2nc1Cl)CCCC3 (centres undefined) | 2.3 | 125 | – | 131 | – | 50 | 942 | 129 | 1.52 | Active | 130 | 123 | 103 | – |
